In patent US12503471B2, “Triazatricycle compounds for the treatment of autoimmune disease” (Hoffmann-La Roche Inc., priority 2019, dated 2025):

Legend:
[1] = Human microsomal stability assay; format: in vitro ADME; conditions: human liver microsomes, 1 μM test compound, 0.5 mg/mL protein, 37° C., pH 7.4
Experimental: Human Microsomal Stability Assay
Human liver microsomes (Cat.NO.: 452117, Corning, USA) were preincubated with test compound for 10 minutes at 37° C. in 100 mM potassium phosphate buffer, pH 7.4. The reactions were initiated by adding NADPH regenerating system. The final incubation mixtures contained 1 μM test compound, 0.5 mg/mL liver microsomal protein, 1 mM MgCl2, 1 mM NADP, 1 unit/mL isocitric dehydrogenase and 6 mM isocitric acid in 100 mM potassium phosphate buffer, pH 7.4. After incubation times of 0, 3, 6, 9, 15 and 30 minutes at 37° C., 300 μL of cold ACN (including internal standard) was added to 100 μL incubation mixture to terminate the reaction. Following precipitation and centrifugation, 100 uL supernatant will be taken out and added 300 uL water. The amount of compound remaining in the samples was determined by LC-MS/MS. Controls of no NADPH regenerating system at zero and 30 minutes were also prepared and analyzed. The results were categorized as: low (7.0 mL/min/kg), medium (7.0-16.2 mL/min/kg) and high (16.2-23.2 mL/min/kg).

human TLR8 = molecular target: T1, human TLR8 (Homo sapiens, UniProt Q9NR97); assay: HEK293-Blue-hTLR-8 cells assay; format: cell-based; conditions: HEK293-Blue-hTLR8 cells, R848 stimulation, 20 hrs, SEAP reporter; read-out: HEK/hTLR8 IC50
T1 construct: host or cells: HEK293 (HEK-Blue hTLR8)
T1 sequence (Q9NR97 27-1041): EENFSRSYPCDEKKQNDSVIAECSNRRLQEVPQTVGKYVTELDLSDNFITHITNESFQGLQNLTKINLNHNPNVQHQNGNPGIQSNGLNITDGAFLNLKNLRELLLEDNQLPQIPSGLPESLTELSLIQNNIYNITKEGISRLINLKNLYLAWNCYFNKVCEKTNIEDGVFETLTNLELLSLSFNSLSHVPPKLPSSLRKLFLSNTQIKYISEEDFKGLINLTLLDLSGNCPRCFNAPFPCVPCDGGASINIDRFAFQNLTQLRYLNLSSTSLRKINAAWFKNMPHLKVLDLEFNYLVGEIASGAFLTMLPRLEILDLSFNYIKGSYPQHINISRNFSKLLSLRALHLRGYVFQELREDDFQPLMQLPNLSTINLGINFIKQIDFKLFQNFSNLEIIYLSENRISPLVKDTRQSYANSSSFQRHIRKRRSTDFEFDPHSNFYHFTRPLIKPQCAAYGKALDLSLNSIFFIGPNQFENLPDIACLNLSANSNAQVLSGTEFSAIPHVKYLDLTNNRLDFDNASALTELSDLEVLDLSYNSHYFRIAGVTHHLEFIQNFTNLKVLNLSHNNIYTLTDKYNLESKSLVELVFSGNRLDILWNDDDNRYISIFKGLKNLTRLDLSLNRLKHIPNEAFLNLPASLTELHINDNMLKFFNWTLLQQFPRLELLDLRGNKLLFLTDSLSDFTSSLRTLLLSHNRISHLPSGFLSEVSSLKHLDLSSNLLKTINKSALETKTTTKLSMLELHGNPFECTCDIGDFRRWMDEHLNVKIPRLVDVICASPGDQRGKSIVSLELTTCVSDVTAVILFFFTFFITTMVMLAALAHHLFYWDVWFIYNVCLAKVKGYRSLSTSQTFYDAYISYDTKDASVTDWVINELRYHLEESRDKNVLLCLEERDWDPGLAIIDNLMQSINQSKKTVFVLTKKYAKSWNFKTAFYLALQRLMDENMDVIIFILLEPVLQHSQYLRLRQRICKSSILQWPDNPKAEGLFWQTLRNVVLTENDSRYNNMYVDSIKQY
From the text: HEK293-Blue-hTLR-8 Cells Assay:
A stable HEK293-Blue-hTLR-8 cell line was purchased from InvivoGen (Cat. #: hkb-htlr8, San Diego, Calif., USA). These cells were originally designed for studying the stimulation of human TLR8 by monitoring the activation of NF-κB. A SEAP (secreted embryonic alkaline phosphatase) reporter gene was placed under the control of the IFN-β minimal promoter fused to five NF-κB and AP-1-binding sites. The SEAP was induced by activating NF-κB and AP-1 via stimulating HEK-Blue hTLR8 cells with TLR8 ligands. Therefore the reporter expression was declined by TLR8 antagonist under the stimulation of a ligand, such as R848, for incubation of 20 hrs. The cell culture supernatant SEAP reporter activity was determined using QUANTI-Blue™ kit (Cat. #: rep-qbl, Invivogen, San Diego, Ca, USA) at a wavelength of 640 nm, a detection medium that turns purple or blue in the presence of alkaline phosphatase.
HEK293-Blue-hTLR8 cells were incubated at a density of 250,000˜450,000 cells/mL in a volume of 170 μL in a 96-well plate in Dulbecco's Modified Eagle's medium (DMEM) containing 4.5 g/L glucose, 50 U/mL penicillin, […], […], 2 mM L-glutamine, 10% (v/v) heat-inactivated fetal bovine serum with addition of 20 μL test compound in a serial dilution in the presence of final DMSO at 1% and 10 μL of 60 uM R848 in above DMEM, perform incubation under 37° C. in a CO2 incubator for 20 hrs. Then 20 μL of the supernatant from each well was incubated with 180 μL Quanti-blue substrate solution at 37° C. for 2 hrs and the absorbance was read at 620-655 nm using a spectrophotometer. The signaling pathway that TLR8 activation leads to downstream NF-κB activation has been widely accepted, and therefore similar reporter assay was modified for evaluating TLR8 antagonist.

Row | Compound | CL (h) [1] | IC50 (human TLR8)
1 | [2H]c1ccc2c(N3C[C@@H](C)N4Cc5nc(N6CC[C@@H](N)[C@H](OC)C6)ccc5[C@H]4C3)ccc(C#N)c2n1 [Example 11, 5-[(2S,6R)-11-[(3R,4R)-4-amino-3-methoxy-1-piperidyl]-6-methyl-4,7,10-triazatricyclo[7.4.0.02,7]trideca-1(9),10,12-trien-4-yl]-2-deuterio-quinoline-8-carbonitrile] | 7.1 mL/min/kg | < 0.3 nM
2 | [2H]c1ccc2c(N3C[C@@H](C)N4Cc5nc(N6CC[C@H](N)[C@H](OC)C6)ccc5[C@H]4C3)ccc(C#N)c2n1 [Example 13, 5-[(2S,6R)-11-[(3R,4S)-4-amino-3-methoxy-1-piperidyl]-6-methyl-4,7,10-triazatricyclo[7.4.0.02,7]trideca-1(9),10,12-trien-4-yl]-2-deuterio-quinoline-8-carbonitrile] | 9.4 mL/min/kg | < 0.3 nM
3 | C[C@@H]1CN(c2ccc(C#N)c3ncccc23)C[C@@H]2c3ccc(N4CC5CNCC(C4)O5)nc3CN12 [Example 6, 5-[(2S,6R)-6-methyl-11-(9-oxa-3,7-diazabicyclo[3.3.1]nonan-3-yl)-4,7,10-triazatricyclo[7.4.0.02,7]trideca-1(9),10,12-trien-4-yl]quinoline-8-carbonitrile] | 6.2 mL/min/kg | 2.3 nM
4 | [2H]c1ccc2c(N3C[C@@H](C)N4Cc5nc(N6CC[C@@](C)(N)C6)ccc5[C@H]4C3)ccc(C#N)c2n1 [Example 7, 5-[(2S,6R)-11-[(3R)-3-amino-3-methyl-pyrrolidin-1-yl]-6-methyl-4,7,10-triazatricyclo[7.4.0.02,7]trideca-1(9),10,12-trien-4-yl]-2-deuterio-quinoline-8-carbonitrile] | 6.2 mL/min/kg | < 0.3 nM

Results, then the molecule that gave them:

Row | CL (h) [1] | IC50 (human TLR8) | Compound
5 | 6.2 mL/min/kg | 0.7 nM | [2H]c1ccc2c(N3C[C@@H](C)N4Cc5nc(N6CCC7(CNC7)C6)ccc5[C@H]4C3)ccc(C#N)c2n1 [Example 9, 2-Deuterio-5-[(2S,6R)-11-(2,6-diazaspiro[3.4]octan-6-yl)-6-methyl-4,7,10-triazatricyclo[7.4.0.02,7]trideca-1(9),10,12-trien-4-yl]quinoline-8-carbonitrile]
6 | 6.2 mL/min/kg | < 0.3 nM | [2H]c1ccc2c(N3C[C@@H](C)N4Cc5nc(OC6CCNCC6)ccc5[C@H]4C3)ccc(C#N)c2n1 [Example 24, 2-Deuterio-5-[(2S,6R)-6-methyl-11-(4-piperidyloxy)-4,7,10-triazatricyclo[7.4.0.02,7]trideca-1(9),10,12-trien-4-yl]quinoline-8-carbonitrile]
7 | 6.2 mL/min/kg | 0.3 nM | [2H]c1ccc2c(N3C[C@@H](C)N4Cc5nc(C6CCNCC6)ccc5[C@H]4C3)ccc(C#N)c2n1 [Example 23, 2-Deuterio-5-[(2S,6R)-6-methyl-11-(4-piperidyl)-4,7,10-triazatricyclo[7.4.0.02,7]trideca-1(9),10,12-trien-4-yl]quinoline-8-carbonitrile]
